Measured values: patent publication US6540991B2, “Stabilized active materials” (3M Innovative Properties Company, priority 2001, dated 2003)

Assay: typical duration of codlemone in the intended environment (stabilization of insect pheromone)
Format: physicochemical
Details: dissipation into the intended environment; codling moth pheromone, nonstabilized vs stabilized with 2,2′-Methylenebis(6-t-butyl-p-cresol)
From the text: Because the insect pheromone can be provided in a stabilized format, a long lasting delivery system may be engineered to provide slow release over a long duration of time. The stabilized format allows for a slow release from a single application without spiking as may be obtainable from multiple applications. “Spiking” as used herein may be triggered by instantaneous or short-term release of the active agents from the shell. Since a mating cycle of a given insect pest may last up to 4-6 weeks in length, the slow release of an insect pheromone may be desirable to provide effective control of insect mating over the duration. Thus, the present invention may be used to control the release rate of insect pheromones thereby effectively controlling and disrupting the mating behavior of the species in a particular intended environment. For example, an insect pheromone for codling moth can be made to steadily dissipate into the intended environment over the duration of a mating cycle for codling moth. A typical duration for a nonstabilized codlemone, the insect pheromone for the codling moth is less than 1 week, as against about 6 weeks for codlemone stabilized according to the present invention.

- typical duration: less than 1 week
SMILES: C/C=C/C=C/CCCCCCCO [nonstabilized codlemone, E,E-8,10 C12 alcohol]
